In US20130143886A1, “METHODS FOR PRESERVING AND/OR INCREASING RENAL FUNCTION USING XANTHINE OXIDOREDUCTASE INHIBITORS” (priority 2006, published 2013):
Marks after values point to notes of the source that are not given here.

Tested on: hyperuricemic gout patients
Experiment: FOCUS long-term open-label study: eGFR, serum creatinine and serum urate
Format: in vivo, human
Details: for GFR (estimated by MDRD, mean) / sCr (mean) / sUA (mean): all subjects
Procedure: The objective of this study was to assess the long-term renal function effects, measured as estimated GFR (eGFR), in a cohort of hyperuricemic gout patients treated febuxostat. Febuxostat was administered at a dosing regimen that chronically maintained a serum urate level (sUA) of <6.0 mg/dL. Of 145 subjects completing a 28-day, double-blind, placebo-controlled trial (See, Becker M A, Schumacher H R, Jr., Wortmann R L, MacDonald P A, Palo […], et al., “Febuxostat, a novel nonpurine selective inhibitor of xanthine oxidase: a twenty-eight-day, multicenter, phase II, randomized, double-blind, placebo-controlled, dose-response clinical trial examining safety and efficacy in patients with gout.” Arthritis and rheumatism, March: 52(3):916-23 (2005)), 116 enrolled in the long-term, 5.5 year Febuxostat Open-label Clinical trial of Urate-lowering efficacy and […] (FOCUS) study. Baseline data were collected upon entry to the initial 28-day trial. Subjects initially received febuxostat 80 mg/day; between weeks 4 to 24 the dose of febuxostat could be titrated to 40 or 120 mg/day to maintain a sUA between <6.0 mg/dL but not lower than 3.0 mg/dL. Age 18 to 85 years with a history or presence of gout as defined by the American College of Rheumatology (Wallace S L, Robinson […], Yu T F, “Preliminary criteria for the classification of the acute arthritis of primary gout.” Arthritis and rheumatism. 1977 April; 20(3):895-900 (1977)). sUA level of ≧8.0 mg/dL at screening for the initial 28-day, double-blind study. […] GFR was estimated (eGFR) using the Modification of Diet in Renal Disease (MDRD) equation shown below: […] otherwise, S=0.742 if subject is female and 1 if male. The predictors, time (year), average sUA on study drug, baseline eGRF, and sUA change from baseline were evaluated for a relationship to eGFR change from baseline using a repeated measures linear model. Backwards selection (p=0.1) was used to reduce the model down to those predictors that best explained the eGRF change from baseline.

Cc1nc(-c2ccc(OCC(C)C)c(C#N)c2)sc1C(=O)O [febuxostat, 2-[3-cyano-4-(2-methylpropoxy)phenyl]-4-methylthiazole-5-carboxylic acid]
Measures of renal function (GFR estimated by MDRD and sCr) (in words) (5-year study period): stable over the 5-year study period | Baseline eGFR in a subsequent febuxostat study vs FOCUS baseline (in words) (18 subjects who completed FOCUS and enrolled in another febuxostat study): all but 1 of these subjects had a baseline eGRF in the new study that was higher | GFR (estimated by MDRD, mean) (Year 1 (n = 115)): 65.7 mL/min | sCr (mean) (Year 1 (n = 115)): 1.2 mg/dL | sUA (mean) (Year 1 (n = 115), excludes initial 28-day trial): 5.1 mg/dL | GFR (estimated by MDRD, mean) (Year 2 (n = 84)): 66.0 mL/min | sCr (mean) (Year 2 (n = 84)): 1.2 mg/dL | sUA (mean) (Year 2 (n = 84)): 5.1^b mg/dL | GFR (estimated by MDRD, mean) (Year 3 (n = 71)): 63.2 mL/min | sCr (mean) (Year 3 (n = 71)): 1.3 mg/dL | sUA (mean) (Year 3 (n = 71)): 5.0 mg/dL | GFR (estimated by MDRD, mean) (Year 4 (n = 67)): 64.2 mL/min | sCr (mean) (Year 4 (n = 67)): 1.3 mg/dL | sUA (mean) (Year 4 (n = 67)): 4.7^b mg/dL | GFR (estimated by MDRD, mean) (Year 5 (n = 60)): 65.0 mL/min | sCr (mean) (Year 5 (n = 60)): 1.3 mg/dL | sUA (mean) (Year 5 (n = 60)): 4.8 mg/dL | mean serum urate (sUA) (baseline GFR <60, Year 1): 5.1 mg/dL | mean serum urate (sUA) (baseline GFR <60, Year 2): 4.8 mg/dL | mean serum urate (sUA) (baseline GFR <60, Year 3): 4.8 mg/dL | mean serum urate (sUA) (baseline GFR <60, Year 4): 4.5 mg/dL | mean serum urate (sUA) (baseline GFR <60, Year 5): 4.6 mg/dL | mean serum urate (sUA) (baseline GFR ≧60, Year 1): 5.2 mg/dL | mean serum urate (sUA) (baseline GFR ≧60, Year 2): 5.1 mg/dL | mean serum urate (sUA) (baseline GFR ≧60, Year 3): 5.1 mg/dL | mean serum urate (sUA) (baseline GFR ≧60, Year 4): 4.7 mg/dL | mean serum urate (sUA) (baseline GFR ≧60, Year 5): 4.9 mg/dL | eGFR benefit (in words) (limited data obtained during Year 6): even greater evidence of eGFR benefit | Predicted eGFR improvement for each 1.0 mg/dL reduction in sUA (modeling, repeated measures linear model): 1.0 mL/min | Relationship of sUA reduction from baseline to eGFR (in words) (p=0.02): correlated with greater improvements in eGFR over time | Maintenance of sUA (throughout the study, regardless of baseline eGFR): < 6.0 mg/dL
